Tests used:
PBM cells = test: cells; assay type: cell-based, human; conditions: for % inhibition at 100 μM, PBM cells: five day incubation, MTT
Description: (§1) The cytotoxicity testing as performed herein is a standard technique. Briefly, cells are seeded in 96-well plates at various concentrations (dependent on cell type, duration of assay), typically at 5×10^3 cells per well, in the presence of increasing concentrations of the test compound (0, 1, 3, 10, 33, and 100 μM). After three (Vero cells), or four (CEM cells), or five (PBM cells) day-incubation, cell viability and mitochondrial activity are measured by adding the MTT-dye (Promega), followed by a 8 hours incubation. Afterwards the plates containing the dye are fixed by adding a stop-solution followed by another eight hour incubation. Finally, absorbance is read at 570 nm. Such methodologies are well described and available from the manufacturer (Promega).

CEM cells = test: cells; assay type: cell-based, human; conditions: for % inhibition at 100 μM, CEM Cells: four day incubation, MTT
Description: as §1

Vero cells = test: cells; assay type: cell-based; conditions: for % inhibition at 100 μM, Vero Cells: three day incubation, MTT
Description: as §1

HCV replicon = HCV replicon system in Huh7 cells, replicon RNA by Q-RT-PCR (HCV ΔCt, ΔΔCt); assay type: cell-based, hepatitis C virus; conditions: for Ave. ΔΔCt: HCV RNA ΔCt minus rRNA ΔCt; for Ave. HCV RNA ΔCt: HCV replicon in Huh7 cells; for average ΔΔCt: HCV RNA ΔCt minus rDNA ΔCt
[1] = system: rRNA (host RNA polymerase I product); test: rRNA ΔCt in Huh7 replicon cells (effect on host RNA polymerases); conditions: Table 24, average of n
Excerpt: In a typical setting, a compound might reduce both the host RNA polymerase activity and the replicon-encoded polymerase activity. Therefore, quantification of rRNA (or any other host RNA polymerase I product) or beta-actin mRNA (or any other host RNA polymerase II) and comparison with RNA levels of the no-drug control is a relative measurement of the effect of the test compound on host RNA polymerases.
With the availability of both the HCV ΔCt data and the rRNA ΔCt, a specificity parameter can be introduced. This parameter is obtained by subtracting both ΔCt values from each other.

rDNA (host DNA) = test: rDNA ΔCt in Huh7 replicon cells (effect on cellular DNA polymerases); conditions: Table 25, average of N
Excerpt: In another typical setting, a compound might reduce the host RNA polymerase activity, but not the host DNA polymerase activity. Therefore, quantification of rDNA or beta-actin DNA (or any other host DNA fragment) and comparison with DNA levels of the no-drug control is a relative measurement of the inhibitory effect of the test compound on cellular DNA polymerases.
With the availability of both the HCV ΔCt data and the rDNA ΔCt, a specificity parameter can be introduced. This parameter is obtained by subtracting both ΔCt values from each other.

Row | Structure (SMILES) | IC50 (PBM cells) | % inhibition at 100 μM, PBM cells (PBM cells) | IC50 (CEM cells) | % inhibition at 100 μM, CEM Cells (CEM cells) | IC50 (Vero cells) | % inhibition at 100 μM, Vero Cells (Vero cells) | Ave. ΔΔCt (HCV replicon; Table 24) | Ave. HCV RNA ΔCt (HCV replicon; Table 24, average of n) | average ΔΔCt (HCV replicon; Table 25) | Ave. HCV RNA ΔCt (HCV replicon; Table 25, average of N) | Ave. rRNA ΔCt [1] | Ave. rDNA ΔCt (rDNA (host DNA))
1 | O=c1[nH]c(=O)n([C@@H]2C[C@H](CO)[C@@H](O)[C@H]2O)cc1F [β-D-GF] | > 100 µM | −46.2% | > 100 µM | 11.2% | > 100 µM | 4.3% | – | – | – | – | – | –
2 | Nc1ccn([C@@H]2C=C(CO)[C@@H](O)[C@H]2O)c(=O)n1 [β-D-HA] | – | – | – | – | – | – | 1.68 | 5.52 | 3.16 | 5.12 | 3.85 | 2.04
3 | Nc1nc(F)nc2c1ncn2[C@@H]1CS[C@H](CO)O1 [β-L-KC] | – | – | – | – | – | – | −0.16 | 1.19 | 3.54 | 2.73 | 1.35 | −0.81
4 | Nc1ncnc2c1ncn2[C@@H]1O[C@H](CO)[C@@H](F)[C@H]1O [β-D-DD] | – | – | – | – | – | – | 1.61 | 6.60 | 3.30 | 6.60 | 4.99 | 3.30
5 | Nc1ncnc2c([C@@H]3O[C@H](CO)[C@@H](O)[C@H]3O)cnn12 [β-D-UA] | – | – | – | – | – | – | 1.3 | 2.91 | 2.41 | 2.91 | 1.61 | 0.50
6 | Nc1nc(=O)n(C2CSC(CO)O2)cc1F [β-L-JB] | – | – | – | – | – | – | −0.90 | 3.65 | 2.45 | 3.65 | 4.55 | 1.20
7 | O=c1nc(NO)c(I)cn1[C@@H]1O[C@H](CO)[C@@H](O)[C@H]1O [β-D-BV] | – | – | – | – | – | – | 1.22 | 1.88 | 1.65 | 1.88 | 0.65 | 0.31
8 | O=c1nc(NO)c(F)cn1[C@@H]1O[C@H](CO)[C@@H](O)[C@H]1O [β-D-BT] | – | – | – | – | – | – | 1.24 | 4.83 | 3.39 | 4.44 | 3.59 | 1.17
9 | Nc1nc(=O)n([C@@H]2CC[C@H](CO)C2)cc1I [β-L-GG] | > 100 µM | −34.6% | > 100 µM | 17.3% | > 100 µM | 33.6% | – | – | – | – | – | –
10 | Nc1nc(=O)n([C@H]2C[C@@H](CO)[C@H](O)[C@@H]2O)cc1Cl [β-L-GI] | > 100 µM | −47.8% | > 100 µM | 18.0% | > 100 µM | 31.9% | – | – | – | – | – | –
11 | O=c1[nH]c(=O)n([C@@H]2O[C@H](CO)[C@@H](O)[C@H]2O)cc1F [β-D-CC] | – | – | – | – | – | – | 0.21 | 5.04 | 3.66 | 5.84 | 4.82 | 2.17
12 | N=c1nc2n(cc1F)[C@@H]1O[C@H](CO)[C@@H](O)[C@@H]1O2 [β-D-MF] | – | – | – | – | – | – | 1.10 | 3.79 | 1.65 | 3.79 | 2.69 | 2.17
13 | Nc1nc(=O)n([C@@H]2O[C@H](CO)[C@@H](O)[C@@H]2O)cc1F [β-D-AP] | – | – | – | – | – | – | 0.05 | 3.27 | 1.02 | 3.27 | 3.23 | 2.26
14 | O=c1[nH]c(=O)n([C@H]2C[C@@H](CO)[C@H](O)[C@@H]2O)cc1F [β-L-GF] | > 100 µM | −70.4% | > 100 µM | 35.1% | > 100 µM | 33.8% | – | – | – | – | – | –
15 | [2H]c1c(N)nc(=O)n([C@@H]2O[C@H](CO)[C@@H](O)[C@@H]2O)c1[2H] [β-D-AO] | – | – | – | – | – | – | 1.97 | 4.10 | 2.26 | 4.10 | 2.13 | 1.84
16 | Nc1nc(=O)n([C@@H]2O[C@H](CO)[C@H](Br)[C@H]2O)cc1I [β-D-BE] | – | – | – | – | – | – | 1.64 | 4.44 | 2.98 | 4.99 | 2.80 | 2.06
17 | Nc1nc(=O)n(C2OC(CO)C(Br)C2O)cc1F [β-D-AT] | – | – | – | – | – | – | 0.64 | 3.71 | 1.43 | 3.81 | 3.07 | 2.43
18 | Nc1ccn(C2CCC(CO)C2)c(=O)n1 [β-L-GE] | > 100 µM | −59.7% | > 100 µM | 0.0% | > 100 µM | 10.6% | – | – | – | – | – | –
19 | Nc1nc(SSc2nc(N)nc3c2ncn3[C@@H]2O[C@H](CO)[C@@H](O)[C@H]2O)c2ncn([C@@H]3O[C@H](CO)[C@@H](O)[C@H]3O)c2n1 [β-D-QA] | – | – | – | – | – | – | −0.89 | 2.91 | 2.55 | 4.85 | 3.81 | 2.30
20 | CS(=O)(=O)OC1C(CO)OC(n2ccc(N)nc2=O)C1O [β-D-AK] | – | – | – | – | – | – | 1.25 | 3.73 | 0.79 | 3.51 | 2.48 | 2.69
21 | N=c1nc(N)ccn1[C@@H]1O[C@H](CO)[C@@H](O)[C@@H]1O [β-D-BL] | – | – | – | – | – | – | 0.35 | 2.28 | 0.65 | 2.28 | 1.93 | 1.62
22 | Nc1nc(Cl)c2ncn([C@H]3CS[C@@H](CO)O3)c2n1 [β-D-KB] | – | – | – | – | – | – | 1.10 | 3.61 | 3.81 | 3.81 | 2.52 | 0.00
23 | Nc1nc(=O)c([C@@H]2O[C@H](CO)[C@@H](O)[C@H]2O)c[nH]1 [β-D-RB] | – | – | – | – | – | – | 1.12 | 4.30 | 2.74 | 4.00 | 3.18 | 1.27
24 | N=c1ccn2c(n1)O[C@H]1[C@H](O)[C@@H](CO)O[C@H]12 [β-D-ME] | – | – | – | – | – | – | 1.64 | 2.89 | 1.36 | 2.89 | 1.25 | 1.53
25 | O=c1nc(NO)c(Br)cn1[C@@H]1O[C@H](CO)[C@@H](O)[C@H]1O [β-D-BU] | – | – | – | – | – | – | 1.06 | 3.46 | 1.16 | 3.46 | 2.18 | 1.10
26 | Nc1ccn([C@@H]2O[C@H](CO)[C@@H](O)[C@@H]2O)c(=O)n1 [β-D-AA] | – | – | – | – | – | – | 1.42 | 3.83 | 1.88 | 3.83 | 2.41 | 2.53
27 | Cc1ccc(S(=O)(=O)O[C@@H]2[C@@H](O)[C@H](n3ccc(N)nc3=O)O[C@@H]2CO)cc1 [β-D-AL] | – | – | – | – | – | – | 0.36 | 3.08 | 0.61 | 3.18 | 2.72 | 2.56
28 | CC(=O)O[C@H]1[C@@H]2Oc3nc(=N)ccn3[C@@H]2O[C@@H]1CO [β-D-MD] | – | – | – | – | – | – | 1.62 | 3.57 | 1.46 | 3.50 | 1.95 | 1.58
29 | OC[C@@H]1C[C@H](F)[C@H](n2cnc3c(Cl)ncnc32)O1 [β-D-DH] | – | – | – | – | – | – | 1.21 | 4.13 | 3.25 | 4.14 | 2.91 | 0.89
30 | Nc1nc(=O)n([C@@H]2O[C@H](CO)[C@@H](O)[C@@H]2Br)cc1I [β-D-BH] | – | – | – | – | – | – | 2.15 | 3.06 | 1.64 | 3.06 | 0.91 | 1.42
